Structures are written as SMILES. Structures can show the parent of a compound that is named as a salt.

Consider 36 molecules from US5382670A, “Platelet activating factor antagonists” (priority 1993, dated 1995).

Chain of PAF receptor (G1TEI7 1-342): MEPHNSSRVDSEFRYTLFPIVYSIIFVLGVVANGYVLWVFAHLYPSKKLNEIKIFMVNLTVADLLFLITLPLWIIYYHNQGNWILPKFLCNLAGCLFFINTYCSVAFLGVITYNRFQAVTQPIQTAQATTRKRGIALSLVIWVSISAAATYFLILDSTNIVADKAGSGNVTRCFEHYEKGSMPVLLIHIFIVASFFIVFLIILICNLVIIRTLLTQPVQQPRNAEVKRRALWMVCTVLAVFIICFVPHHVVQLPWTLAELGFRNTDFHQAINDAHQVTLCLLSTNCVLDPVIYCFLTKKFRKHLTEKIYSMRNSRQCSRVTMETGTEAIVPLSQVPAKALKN

The first assay has as its target PAF receptor (Oryctolagus cuniculus, UniProt G1TEI7). Put plainly: PAF receptor binding assay: inhibition of specific [3H]C18-PAF binding to rabbit platelet membranes. The settings on record: 0.6 nM [3H]C18-PAF, 60 min, 22-23 °C, Ki from IC50 (Cheng and Prusoff), read-out: Ki (PAF Receptor Binding Activity). On the procedure:
The ability of representative compounds of the present invention to inhibit PAF activity was determined in an in vitro test using the following method.
Citrated whole rabbit blood was obtained from Pel-Freez (Rogers, AR). Rabbit platelets were prepared by centrifugation and washing. The platelets were lysed by freeze-thawing and sonication; platelet membranes were prepared by centrifugation and washing. Final membrane preparations were stored frozen in 10 mM Tris/5 mM MgCl2 /2 mM EDTA (TME buffer, pH 7.0) with 0.25M sucrose added for membrane stabilization.
The standard PAF receptor binding assay contained 10 μg platelet membrane protein, 0.6 nM [^3 H]C18 -PAF (from Amersham or New England Nuclear; specific activity 120-180 Ci/mmol), with and without test compound, in "binding buffer" consisting of TME with 0.25% bovine serum albumin added (Sigma, RIA grade). The final volume of the assay was 100 μl. The assay was conducted in Millititre-GV™ (Millipore Corp.) filtration plates; incubation time was for 60 minutes at room temperature (22°-23° C.). "Specific binding" was operationally defined as the arithmetic difference between "total binding" of 0.6 nM [^3 H]C18 -PAF (in the abasence of added PAF) and "nonspecific binding" (in the presence of 1 μM PAF). After the prescribed incubation, platelet membranes were filtered under vacuum, and washed with 1 milliliter of "binding buffer". The filters were dried and removed. The bound radioactivity was quantitated with a Berthold TLC-Linear Analyzer model LB2842.
Dose-response curves of inhibition of specific [^3 H]C18 -PAF binding by test compounds were conducted in triplicate, with at least four doses covering the active range. Experiments were repeated at least once. IC50 values (concentration producing 50% inhibition) were determined by point-to-point evaluation. Ki values of inhibitory binding constants were calculated according to the method of Cheng and Prusoff [Biochem. Pharmacol. 22 (1973) 3099-3108] whereby [formula]
The values of Ki for representative compounds of the present invention appear in Table 1.
Regarding `CC(C)(C)NC(=O)n1cc(C(=O)C2CSC(c3cccnc3)N2)c2ccccc21` (stereo not drawn) [Example 54], the Ki was 9 nM. Consider `Cc1c(C(=O)C2CSC(c3cccnc3)N2)c2ccccc2n1C` (stereo not drawn) [Example 21, 1.2-dimethyl-3-[2-(3-pyridinyl)thiazolid-4-oyl]indole oxalate], for which the Ki came to 105 nM.

For `CC(C)(C)OC(=O)n1cc(C(=O)C2CSC(c3cccnc3)N2)c2ccccc21` (stereo not drawn) [Example 28, 1-tert-butoxycarbonyl-3-[2-(3-pyridinyl)thiazolid-4-oyl]indole oxalate], the Ki turned out to be 2 nM. Regarding `CN(C)C(=O)n1cc(C(=O)[C@@H]2CSC(c3cccnc3)N2C=O)c2ccccc21` (stereo partly drawn) [Example 96, trans-1-dimethylcarbamoyl-3-[2-(3-pyridinyl)-3-formylthiazolid-4-oyl]indole], the Ki was determined as 150 nM. For the molecule `CC(C)(C)OC(=O)n1cc(C(=O)[C@@H]2CS[C@H](c3cccnc3)S2)c2ccccc21` (relative stereo) [Example 29, cis-1-tert-butoxycarbonyl-3-[2-(3-pyridinyl)dithiolan-4-oyl]indole hydrochloride], the Ki was found to be 180 nM.

Regarding `CN(C)C(=O)n1cc(C(=O)C2CSC(c3cccnc3)N2)c2cccc(OCc3ccccc3)c21` (stereo not drawn) [Example 51, 1-dimethylcarbamoyl)-7-phenylmethoxy-3-[2-(3-pyridinyl)thiazolid-4-oyl]indole oxalate], the Ki was found to be 13 nM. For the molecule `O=C(c1c[nH]c2cc(Oc3ccc(F)cc3)ccc12)C1CSC(c2cccnc2)N1` (stereo not drawn) [Example 70, 3-[2-(3-pyridinyl)thiazolid-4-oyl]-6-(4-fluorophenoxy)indole], the Ki was found to be 2 nM. The same measure, in the same setting: for `O=C(c1c[nH]c2cc(OCc3cccnc3)ccc12)C1CSC(c2cccnc2)N1` (stereo not drawn) [Example 76] the value was 30 nM; for `COc1ccc2c(C(=O)C3CSC(c4cccnc4)N3)cn(C(=O)OC(C)(C)C)c2c1` (stereo not drawn) [Example 84, 1-tert-butoxycarbonyl-3-[2-(3-pyridinyl)thiazolid-4-oyl]-6-methoxyindole oxalate], 9 nM; for `CC(=O)N1C(C(=O)c2cn(C(=O)N(C)C)c3cc(OCc4ccccc4)ccc23)CSC1c1cccnc1` (stereo not drawn) [Example 99, 1-dimethylcarbamoyl-3-[2-(3-pyridinyl)-3-acetylthiazolid-4-oyl]-6-phenylmethoxyindole], 5000 nM. Still for that read-out and setting: with `CN(C)C(=O)n1cc(C(=O)C2CSC(c3cccnc3)N2)c2ccc(OCc3ccc(F)cc3)cc21` (stereo not drawn) [Example 75, 1-dimethylcarbamoyl-3-[2-(3-pyridinyl)thiazolid-4-oyl]-6-(4-fluorophenylmethoxy)indole] the figure was 2 nM.

On to `O=C(c1c[nH]c2cc(OCc3ccccc3)ccc12)C1CSC(c2cccnc2)N1` (stereo not drawn) [Example 34, 6-phenylmethoxy-3-[2-(3-pyridinyl)thiazolid-4-oyl]indole], for which the inhibition constant (Ki) was found to be 2 nM. Still for that read-out and setting: for `CN(C)C(=O)n1cc(C(=O)C2CSC(c3cccnc3)N2)c2ccc(OCc3ccccc3)cc21` (stereo not drawn) [Example 52, 1-dimethylcarbamoyl-6-phenylmethoxy-3-[2-(3-pyridinyl)thiazolid-4-oyl]indole] the value was 1 nM; for `CC(=O)N1C(C(=O)c2cn(C(=O)OC(C)(C)C)c3ccccc23)CSC1c1cccnc1` (stereo not drawn) [Example 57, 1-tert-butoxycarbonyl-3-[2-(3-pyridinyl)-3-acetylthiazolid-4-oyl]indole], 10 nM. Same read-out and setting: for `CN(C)C(=O)n1cc(C(=O)C2CSC(c3cccnc3)N2C=O)c2ccccc21` (stereo not drawn) [Example 91, 1-dimethylcarbamoyl-3-[2-(3-pyridinyl)-3-formylthiazolid-4-oyl]indole] the value was 37 nM; for `Cc1ccc2c(c1)c(C(=O)C1CSC(c3cccnc3)N1)c(C)n2C(=O)N1CCOCC1` (stereo not drawn) [Example 68, 1-(4-morpholinocarbonyl)-2,5-dimethyl-3-[2-(3-pyridinyl)thiazolid-4-oyl]indole], 36 nM; for `CN(C)C(=O)n1cc(C(=O)[C@@H]2CS[C@@H](c3cccnc3)N2C(=O)C(F)(F)F)c2ccccc21` (relative stereo) [Example 107, trans-1-dimethylcarbamoyl 1-34 2-(3-pyridinyl)-3-trifluoroacetylthiazolid-4-oyl]indole oxalate], 75 nM. Same read-out and setting: for `O=CN1C(C(=O)c2cn(C(=O)N3CCOCC3)c3ccccc23)CSC1c1cccnc1` (stereo not drawn) [Example 92, 1-(4-morpholinocarbonyl)-3-[2-(3-pyridinyl)-3-formylthiazolid-4-oyl]indole] the value was 150 nM. Take `CC(C)(C)OC(=O)n1cc(C(O)C2CSC(c3cccnc3)N2)c2ccccc21` (stereo not drawn) [Example 114, [2-(3-pyridinyl)thiazolid-4-yl](1-tert-butoxycarbonylindol-3-yl)methanol]: the Ki was found to be 43 nM. The same measure, in the same setting: for `CN(C)C(=O)n1cc(C(=O)C2CSC(c3cccnc3)N2C(=O)C(F)(F)F)c2ccc(OCc3ccccc3)cc21` (single isomer, unassigned; isomer 1) [Example 108, 1-dimethylcarbamoyl-3-[2-(3-pyridinyl)-3-trifluoroacetylthiazolid-4-oyl]-6-phenylmethoxyindole, isomer 1] the value was 250 nM; for `CC(=O)N1C(C(=O)c2cn(C(=O)N(C)C)c3cc(OCc4ccccc4)ccc23)CSC1c1cccnc1` (stereo not drawn) [Example 101, oxalate], 2200 nM; for `O=C(c1c[nH]c2ccccc12)C1CSC(c2cccnc2)N1C(=O)C(F)(F)F` (single isomer, unassigned; isomer 1) [Example 102, 3-[2-(3-pyridinyl)-3-trifluoroacetylthiazolid-4-oyl]indole,isomer 1], 2700 nM. In the case of `CC(C)(C)OC(=O)n1cc(C(=O)[C@@H]2CS[C@@H](c3cccnc3)S2)c2ccccc21` (relative stereo) [Example 30, trans 1-tert-butoxycarbonyl-3-[2-(3-pyridinyl)dithiolan-4-oyl]indole oxalate], the Ki was determined as 900 nM.

Turning to `CCN(CC)C(=O)n1cc(C(=O)C2CSC(c3cccnc3)N2)c2ccccc21` (stereo not drawn) [Example 48, 1-diethylcarbamoyl-3-[2-(3-pyridinyl)thiazolid-4-oyl]indole], the Ki was 1 nM. On the same count and under the same terms, with `O=C(c1c[nH]c2ccccc12)C1CSC(c2cccnc2)S1` (stereo not drawn) [Example 31, 3-2-(3-pyridinyl)dithiolan-4-oyl]indole oxalate] the figure was 1700 nM; with `CN(C)C(=O)n1cc(C(=O)C2CSC(c3cccnc3)N2)c2ccccc21` (stereo not drawn) [Example 38], 1 nM. Regarding `CCS(=O)(=O)n1cc(C(=O)C2CSC(c3cccnc3)N2)c2ccccc21` (stereo not drawn) [Example 62, 1-ethylsulfonyl-3-[2-(3-pyridinyl)thiazolid-4-oyl]indole], the Ki stood at 18 nM. Consider `O=C(C1CSC(c2cccnc2)S1)n1ccc2ccccc21` (stereo not drawn) [Example 26, 1-[2-(3-pyridinyl)dithiolan-4-oyl]indole oxalate], for which the Ki was determined as 360 nM. On the same count and under the same terms, with `CN(C)C(=O)n1cc(C(=O)[C@@H]2CS[C@H](c3cccnc3)N2C(=O)C(F)(F)F)c2ccccc21` (relative stereo) [Example 105, cis-1-dimethylcarbamoyl-3-[2-(3-pyridinyl)-3-trifluoroacetylthiazolid-4-oyl]indole oxalate] the figure was 175 nM.

The same assay, now with this note: Ki (PAF Receptor Binding Activity), 0.6 nM [3H]C18-PAF, 60 min, 22-23 °C, Ki from IC50 (Cheng and Prusoff).
In the case of `CNC(=O)Cn1cc(C(=O)C2CSC(c3cccnc3)N2)c2ccccc21` (stereo not drawn) [Example 117, 1-(N-methylcarbamoylmethyl)-3-[2-(3-pyridinyl)thiazolid-4-oyl]indole], the Ki was found to be 3 nM. The same measure, in the same setting: with `O=C(c1cn(CC(F)(F)F)c2ccccc12)C1CSC(c2cccnc2)N1` (stereo not drawn) [Example 59, 1-trifluoroethyl-3-[2-(3-pyridinyl)thiazolid-4-oyl]indole] the figure was 20 nM; with `O=C(c1c[nH]c2cc(O)ccc12)C1CSC(c2cccnc2)N1` (stereo not drawn) [Example 88, 3-[2-(3-pyridinyl)thiazolid-4-oyl]-6-hydroxyindole], 150 nM. Still for that read-out and setting: with `COc1ccc2c(C(=O)C3CSC(c4cccnc4)N3)c[nH]c2c1` (stereo not drawn) [Example 83, 3-[2-(3-pyridinyl)thiazolid-4-oyl]-6-methoxyindole oxalate] the figure was 16 nM; with `O=C(c1cn(Cc2ccccc2)c2ccccc12)C1CSC(c2cccnc2)N1` (stereo not drawn) [Example 46, 1-phenylmethyl-3-[2-(3-pyridinyl)thiazolid-4-oyl]indole], 50 nM; with `COc1cc2ccn(C(=O)C3CSC(c4cccnc4)N3)c2cc1OC` (stereo not drawn) [Example 13, 1-[2-(3-pyridinyl)thiazolid-4-oyl]-5,6-dimethoxyindole dihydrochloride], 2400 nM. The same measure, in the same setting: with `O=C(C1CSC(c2cccnc2)N1)n1ccc2ccc(F)cc21` (stereo not drawn) [Example 14, 1-[2-(3-pyridinyl)thiazolid-4-oyl]-6-fluoroindole] the figure was 67 nM.
